In US12104168B2, “Cell culture medium” (Agency For Science, Technology And Research, priority 2018, dated 2024):

System: hepSC
Assay: Dasatinib withdrawal or replacement in hSC media, maintenance of hepSC stem cell state
Conditions: for survival of hepatic stem cells: ABL kinase inhibitor together with SRC inhibition, replacing Dasatinib; for rescue of phenotype after subculturing / rescue of cell phenotype: added instead of Dasatinib; for rescue of phenotype after subculturing: 48 hr after subculturing; for rescue of cell phenotype: 6 days after withdrawal; for rescue of cell morphology changes: replacement of Dasatinib with the inhibitor, 48 hrs

Row | Compound | survival of hepatic stem cells | rescue of phenotype after subculturing | rescue of cell phenotype | rescue of cell morphology changes
1 | Cc1cn(-c2cc(NC(=O)c3ccc(C)c(Nc4nccc(-c5cccnc5)n4)c3)cc(C(F)(F)F)c2)cn1 [Nilotinib] | seems to improved survival of hepatic stem cells | did not rescue the phenotype | did not rescue the cell phenotype | did not rescue cell morphology changes
2 | Cc1ccc(NC(=O)c2ccc(CN3CCN(C)CC3)cc2)cc1Nc1nccc(-c2cccnc2)n1 [Imatinib] | seems to improved survival of hepatic stem cells | did not rescue the phenotype | did not rescue the cell phenotype | did not rescue cell morphology changes
